Data reported in ChEMBL document CHEMBL1131392, “3-Pyridyloxypropanolamine agonists of the beta 3 adrenergic receptor with improved pharmacokinetic properties” (Bioorg Med Chem Lett, 1998).

Legend:
[1] = Oral bioavailability in dog; format: ADME, organism-based, Canis lupus familiaris; conditions: in vivo
[2] = Plasma clearance upon intravenous administration of 1 mg/Kg in rats; format: ADME, organism-based; conditions: rat
[3] = Compound was evaluated for half life (t1/2) upon intravenous administration of 1 mg/Kg in rats; format: ADME, organism-based; conditions: rat, in vivo

Structure (SMILES)	bioavailability [1]	clearance [2]	half-life [3]
O=S(=O)(Nc1ccc(CCNC[C@H](O)COc2ccc(O)cc2)cc1)c1cnc2ccccc2c1	3%		
O=S(=O)(Nc1ccc(CCNC[C@H](O)COc2ccc(O)cc2)cc1)c1ccccc1		> 200 mL/min/kg	25 min
CCCCCCNC(=O)Nc1ccc(S(=O)(=O)Nc2ccc(CCNC[C@H](O)COc3ccc(O)cc3)cc2)cc1 [L-755507]	< 1%		
